One may read the Ki as a measure of affinity in units of concentration, obtained from inhibition or displacement. Read a high Ki as a looser hold on the target.

Experiment [1] has as its target T1, HCV genotype 1b (BK) NS3 modified enzyme with a R155K mutation (Hepatitis C virus genotype 1b, UniProt P26663, R1181K).
T1 construct: HCV genotype 1b (BK) NS3 modified enzyme
Kind of experiment: HCV NS3 protease time-resolved fluorescence (TRF) assay, genotype 1b R155K. The format is biochemical. Conditions: Ki 1b R155K. The procedure, abridged: (§1)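 Time-resolved fluorescence, ex 340/em 615 nm, 400 μs delay; IC50 by four-parameter fit. Enzyme preincubated with compound 10 min, then TRF substrate 25 nM final added and reaction run 6 h at RT. Buffer HEPES pH 7.5 with NaCl, glycerol, Triton X-100, DTT, PEG 8000.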

The target in experiment [2] is HCV NS3 protease genotype 3a (3A-1) (Hepatitis C virus genotype 3a, UniProt Q81258). Put plainly: HCV NS3 protease time-resolved fluorescence (TRF) assay, genotype 3a. The format is biochemical. Conditions: Ki 3a. The procedure, abridged:
as §1

Where [3] appears, read: genotype 1b (BK) NS3 R155K, single value.
Setting [4] is: first of two values printed in the cell (not explained).
The mark [5] stands for this setting: second of two values printed in the cell (not explained).

Counter-ions that a name gives are not always drawn.

With `C=C[C@@H]1C[C@]1(NC(=O)[C@@H]1C[C@@H]2CN1C(=O)[C@H](C(C)(C)C)NC(=O)O[C@@H]1C[C@H]1CCCCCc1c(nc3ccccc3c1OCCCN1CC3CCC1C3)O2)C(=O)NS(=O)(=O)C1(C)CC1` [Example 196, (1aR,5S,8S,10R,22aR)-17-[3-(2-azabicyclo[2.2.1]hept-2-yl)propxy]-5-tert-butyl-N-[(1R,2S)-2-ethenyl-1-{[(1-methylcyclopropyl)sulfonyl]carbamoyl}cyclopropyl]-3,6-dioxo-1,1a, 3,4,5,7,9,10,18,19,20,21,22,22a-tetradecahydro-8H-7,10-methanocyclopropa[18,19][1,10,3,6] dioxadiazacyclononadecino[11,12-b] quinoline-8-carboxamide], the values for the Ki in experiment [1] (setting [3]) and in experiment [2] were 0.1 nM and 0.85 nM, respectively.
On the same counts, the results for `C=C[C@@H]1C[C@]1(NC(=O)[C@@H]1C[C@@H]2CN1C(=O)[C@H](C(C)(C)C)NC(=O)O[C@@H]1C[C@H]1CCCCCc1c(nc3ccccc3c1OCCCN1CC(OC)C1)O2)C(=O)NS(=O)(=O)C1(C)CC1` [Example 157, (1aR,5S,8S,10R,22aR)-5-tert-butyl-N-[(1R,2S)-2-ethenyl-1-{[(1-methylcyclopropyl)sulfonyl]carbamoyl}cyclopropyl]-17-[3-(3-methoxyazetidin-1-yl)propoxy]-3,6-dioxo-1,1a,3,4,5,6,9,10, 18,19,20,21,22,22a-tetradecahydro-8H-7,10-methanocyclopropa[18,19] [1,10,3,6]dioxadiazacyclononadecino [11,12-b]quinoline-8-carboxamide] are 0.049 nM and 0.76 nM.
Regarding `C=C[C@@H]1C[C@]1(NC(=O)[C@@H]1C[C@@H]2CN1C(=O)[C@H](C1(C)CCCCC1)NC(=O)O[C@@H]1C[C@H]1CCCCCc1c(nc3ccccc3c1OC1CCN(C)CC1)O2)C(=O)NS(=O)(=O)C1(C)CC1` [Example 232, (1aR,5S,8S,10R,22aR)—N-[(1R,2S)-2-ethenyl-1-{[(1-methylcyclopropyl)sulfonyl]carbamoyl}cyclopropyl]-5-(1-methylcyclohexyl)-17-[(1-methylpiperidin-4-yl)oxy]-3,6-dioxo-1,1a,3,4,5,6,9,10,18,19,20,21,22,22a-tetradecahydro-8H-7,10-methanocyclopropa[18,19][1,10,3,6]dioxadiazacyclononadecino[11,12-b]quinoline-8-carboxamide], the inhibition constant Ki in experiment [1] (setting [4]) stood at 0.02 nM; in experiment [1] (setting [5]), 0.04 nM; in experiment [2] it was 0.275 nM.
Take `C=C[C@@H]1C[C@]1(NC(=O)[C@@H]1C[C@@H]2CN1C(=O)[C@H](C(C)(C)C)NC(=O)O[C@@H]1C[C@H]1CCCCCc1c(nc3ccccc3c1OCCN1CCCC1)O2)C(=O)NS(=O)(=O)C1(C)CC1` [Example 135]: the Ki in experiment [1] (setting [3]) came out at 0.2 nM; in experiment [2], 1.8 nM.
As for `C=C[C@@H]1C[C@]1(NC(=O)[C@@H]1C[C@@H]2CN1C(=O)[C@H](C1CCCCC1)NC(=O)O[C@@H]1C[C@H]1CCCCCc1c(nc3ccccc3c1OC1CC3CCC(C1)N3CCOC)O2)C(=O)NS(=O)(=O)C1(C)CC1` (stereo partly drawn) [Example 284, (1aR,5S,8S,10R,22aR)-5-cyclohexyl-N-[(1R,2S)-2-ethenyl-1-{[(1-methylcyclopropyl)sulfonyl]carbamoyl}cyclopropyl]-17-{[8-(2-methoxyethyl)-8-azabicyclo[3.2.1]oct-3-yl]oxy}-3,6-dioxo-1,1a,3,4,5,6,9,10,18,19,20,21,22,22a-tetradecahydro-8H-7,10-methanocyclopropa[18,19][1,10,3,6]dioxadiazacyclononadecino[11,12-b]quinoline-8-carboxamide], the inhibition constant Ki in experiment [1] (setting [4]) came out at 0.023 nM; in experiment [1] (setting [5]), 0.053 nM; in experiment [2], 0.28 nM.
Turning to `C=C[C@@H]1CC1(NC(=O)[C@@H]1C[C@@H]2CN1C(=O)[C@H](C1CCOCC1)NC(=O)O[C@@H]1C[C@H]1CCCCCc1c(nc3ccccc3c1OC1CCN(C)CC1)O2)C(=O)NS(=O)(=O)C1(C)CC1` (stereo partly drawn) [Example 252, potassium {[(1R,2S)-2-ethenyl-1-({[(1aR,5S,8S,10R,22aR)-17-[(1-methylpiperidin-4-yl)oxy]-3,6-dioxo-5-(tetrahydro-2H-pyran-4-yl)-1,1a,3,4,5,6,9,10,18,19,20,21,22,22a-tetradecahydro-8H-7,10-methanocyclopropa[18,19][1,10,3,6]dioxadiazacyclononadecino[11,12-b]quinolin-8-yl]carbonyl}amino)cyclopropyl]carbonyl}[(1-methylcyclopropyl)sulfonyl]azanide], the results for the Ki in experiment [1] (setting [4]), in experiment [1] (setting [5]) and in experiment [2] were 0.009 nM, 0.022 nM and 0.088 nM, respectively.
As to `C=C[C@@H]1C[C@]1(NC(=O)[C@@H]1C[C@@H]2CN1C(=O)[C@H](C1CCCCC1)NC(=O)O[C@@H]1C[C@H]1CCCCCc1c(nc3ccccc3c1OC1CCCN(C)C1)O2)C(=O)NS(=O)(=O)C1(C)CC1` (stereo partly drawn) [Example 291, 3-{[(1aR,5S,8S,10R,22aR)-5-cyclohexyl-8-{[(1R,2S)-2-ethenyl-1-{[(1-methylcyclopropyl)sulfonyl]carbamoyl}cyclopropyl]carbamoyl}-3,6-dioxo-1,1a,3,4,5,6,9,10,18,19,20,21,22,22a-tetradecahydro-8H-7,10-methanocyclopropa[18,19][1,10,3,6]dioxadiazacyclononadecino[11,12-b]quinolin-17-yl]oxy}-1-methylpiperidinium formate], the values for the Ki in experiment [1] (setting [4]), in experiment [1] (setting [5]) and in experiment [2] were 0.01 nM, 0.085 nM and 0.774 nM, respectively.
`C=C[C@@H]1CC1(NC(=O)[C@@H]1C[C@@H]2CN1C(=O)[C@H](C1CCCCC1)NC(=O)O[C@@H]1C[C@H]1CCCCCc1c(nc3ccccc3c1OC1CCN(CCOC(F)(F)F)CC1)O2)C(=O)NS(=O)(=O)C1(C)CC1` (stereo partly drawn) [Example 262, potassium {[(1R,2S)-1-({[(1aR,5S,8S,10R,22aR)-5-cyclohexyl-3,6-dioxo-17-({1-[2-(trifluoromethoxy)ethyl]piperidin-4-yl}oxy)-1,1a,3,4,5,6,9,10,18,19,20,21,22,22a-tetradecahydro-8H-7,10-methanocyclopropa[18,19][1,10,3,6]dioxadiazacyclononadecino[11,12-b]quinolin-8-yl]carbonyl}amino)-2-ethenylcyclopropyl]carbonyl}[(1-methylcyclopropyl)sulfonyl]azanide]: the Ki in experiment [1] (setting [4]) worked out at 0.018 nM; in experiment [1] (setting [5]), 0.12 nM; in experiment [2] it was 1.2 nM.
For `C=C[C@@H]1C[C@]1(NC(=O)[C@@H]1C[C@@H]2CN1C(=O)[C@H](C(C)(C)C)NC(=O)O[C@@H]1C[C@H]1CCCCCc1c(nc3ccccc3c1OCCCN(C)Cc1ncc[nH]1)O2)C(=O)NS(=O)(=O)C1(C)CC1` [Example 200, (1aR,5S,8S,10R,22aR)-5-tert-butyl-N-[(1R,2S)-2-ethenyl-1-{[(1-methylcyclopropyl)sulfonyl]carbamoyl}cylcopropyl]-17-{3-[(1H-imidazol-2-ylmethyl)(methyl)amino]propoxy}-3,6-dioxo-1,1a,3,4,5,6,9,10,18, 19,20,21,22,22a-tetradecahydro-8H-7,10-methanocyclopropa[18,19][1,10,3,6] dioxadiazacyclononadecino[11,12-b] quinoline-8-carboxamide], the figures for the inhibition constant (Ki) in experiment [1] (setting [3]) and in experiment [2] were 0.074 nM and 0.96 nM, respectively.
As for `C=C[C@@H]1C[C@]1(NC(=O)[C@@H]1C[C@@H]2CN1C(=O)[C@H](C1CCCCC1)NC(=O)O[C@@H]1C[C@H]1CCCCCc1c(nc3ccccc3c1CN1CCN(C)CC1)O2)C(=O)NS(=O)(=O)C1(C)CC1` [Example 266, potassium ({(1R,2S)-1-[({(1aR,5S,8S,10R,22aR)-5-cyclohexyl-17-[(4-methylpiperazin-1-yl)methyl]-3,6-dioxo-1,1a,3,4,5,6,9,10,18,19,20,21,22,22a-tetradecahydro-8H-7,10-methanocyclopropa[18,19][1,10,3,6]dioxadiazacyclononadecino[11,12-b]quinolin-8-yl}carbonyl)amino]-2-ethenylcyclopropyl}carbonyl)[(1-methylcyclopropyl)sulfonyl]azanide], the inhibitory constant (Ki) in experiment [1] (setting [4]) was 0.02 nM; in experiment [1] (setting [5]) it was 0.044 nM; in experiment [2], 7.5 nM.
As for `C=C[C@@H]1C[C@]1(NC(=O)[C@@H]1C[C@@H]2CN1C(=O)[C@H](C1CCCC1)NC(=O)O[C@@H]1CCC[C@H]1CC/C=C/Cc1c(nc3ccccc3c1OCCCOP(=O)(O)O)O2)C(=O)NS(=O)(=O)C1CC1` [Example 95, 3-{[(3aR,7S,10S,12R,21E,24aS)-7-cyclopentyl-10-({(1R,2S)-1-[(cyclopropylsulfonyl)carbamoyl]-2-ethenylcyclopropyl}carbamoyl)-5,8-dioxo-1,2,3,3a,5,6,7,8,11,12,20,23,24,24a-tetradecahydro-10H-9,12-methanocyclopenta[18,19][1,10,3,6]dioxadiazacyclononadecino[11,12-b]quinolin-19-yl]oxy}propyl dihydrogen phosphate], the values for the Ki in experiment [1] (setting [3]) and in experiment [2] were 0.18 nM and 1 nM, respectively.
As to `C=C[C@@H]1C[C@]1(NC(=O)[C@@H]1C[C@@H]2CN1C(=O)[C@H](C(C)(C)C)NC(=O)O[C@@H]1C[C@H]1CCCCCc1c(nc3ccccc3c1OC1C3COCC1CN(CCOC)C3)O2)C(=O)NS(=O)(=O)C1(C)CC1` (stereo partly drawn) [Example 261, (1aR,5S,8S,10R,22aR)-5-tert-butyl-N-[(1R,2S)-2-ethenyl-1-{[(1-methylcyclopropyl)sulfonyl]carbamoyl}cyclopropyl]-17-{[7-(2-methoxyethyl)-3-oxa-7-azabicyclo[3.3.1]non-9-yl]oxy}-3,6-dioxo-1,1a,3,4,5,6,9,10,18,19,20,21,22,22a-tetradecahydro-8H-7,10-methanocyclopropa[18,19][1,10,3,6]dioxadiazacyclononadecino[11,12-b]quinoline-8-carboxamide], the Ki in experiment [1] (setting [4]) was determined as 0.026 nM; in experiment [1] (setting [5]) it was 0.155 nM; in experiment [2] it was 3.45 nM.

The values are drawn from patent US9328138B2 (priority 2011, dated 2016).
